Results on 7 molecules are retold here after US10363239B2, “Method for inhibiting growth of cancer cells” (Pain Therapeutics, Inc., priority 2013, dated 2019).

Each structure is given as a SMILES string.

In general, inhibition refers to the change of the read-out against control, counted positive when it falls.

One test relates to mu opiate receptor (MOR). Briefly: MOR agonist activity using [35S]GTPγS binding assay in striatal membranes. It is filed as biochemical. Conditions: 0.1 μM compound. Summed up:
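Striatal membranes (200 μg) were preincubated 5 min at 30 °C in HEPES pH 7.5 with 100 mM NaCl, 1 mM MgCl2 and 0.5 nM [35S]GTPγS, then 5 min more with 0.1–10 μM compound. Gαo was immunoprecipitated and bound radioactivity counted by scintillation.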
With `CC1CCC(C(C)C)C(OCC(O)Cn2ccc3ccccc32)C1` (centres unmarked) [Compound A0078], the “MOR agonist activity ([35S]GTPγS binding), FLNA-Binding Compound as Agonist 0.1 μM” value was found to be 250.5%.
With `COc1ccc(OCC(O)Cn2ccc3ccccc32)cc1` (centres unmarked) [Compound A0077], the “MOR agonist activity ([35S]GTPγS binding), FLNA-Binding Compound as Agonist 0.1 μM” value turned out to be 300.1%.

The test is the same for the next values; noted with them: 0.1 μM compound relative to DAMGO.
`CC1CCC(C(C)C)C(OCC(O)Cn2ccc3ccccc32)C1` (centres unmarked) [Compound A0078]: the “% DAMGO (0.1 μM)” value was 124.9%.
Same read-out and setting: as for `COc1ccc(OCC(O)Cn2ccc3ccccc32)cc1` (centres unmarked) [Compound A0077], the figure is 170.5%.

The same test, now with this note: 0.1 μM; average of two runs.
As to `Cc1ccc(S(=O)(=O)N2CCOC23CCN(CC2CCC2)CC3)cc1` [Compound 9], the “MOR agonist activity, FLNA-Binding Compound as Agonist 0.1 μM (preliminary study)” value was 156.6%.

The same test, now with this note: 1 μM + βNFA; average of two runs.
For `Cc1ccc(S(=O)(=O)N2CCOC23CCN(CC2CCC2)CC3)cc1` [Compound 9], the “MOR agonist activity, FLNA-Binding Compound as Agonist 1 μM + βNFA (preliminary study)” value is 56.6%.

The test is the same for the next values; noted with them: 1 μM compound.
`CC1CCC(C(C)C)C(OCC(O)Cn2ccc3ccccc32)C1` (centres unmarked) [Compound A0078]: the “MOR agonist activity ([35S]GTPγS binding), FLNA-Binding Compound as Agonist 1 μM” value is recorded as 289.9%.
Regarding `COc1ccc(OCC(O)Cn2ccc3ccccc32)cc1` (centres unmarked) [Compound A0077], the “MOR agonist activity ([35S]GTPγS binding), FLNA-Binding Compound as Agonist 1 μM” value was determined as 334.7%.

The test is the same for the next values; noted with them: 1 μM compound + 1 μM β-funaltrexamine.
As to `CC1CCC(C(C)C)C(OCC(O)Cn2ccc3ccccc32)C1` (centres unmarked) [Compound A0078], the “MOR agonist activity ([35S]GTPγS binding), FLNA-Binding Compound as Agonist 1 μM + BFNA” value was found to be 147.8%.
Regarding `COc1ccc(OCC(O)Cn2ccc3ccccc32)cc1` (centres unmarked) [Compound A0077], the “MOR agonist activity ([35S]GTPγS binding), FLNA-Binding Compound as Agonist 1 μM + BFNA” value was determined as 103.5%.

Still in this test, the particulars now being: 1 μM compound + BFNA relative to DAMGO + BFNA.
Take `CC1CCC(C(C)C)C(OCC(O)Cn2ccc3ccccc32)C1` (centres unmarked) [Compound A0078]: the “% DAMGO + BFNA” value is given as 274.2%.
The same measure, in the same setting: as for `COc1ccc(OCC(O)Cn2ccc3ccccc32)cc1` (centres unmarked) [Compound A0077], the figure is 470.5%.

The test is the same for the next values; noted with them: 1 μM compound relative to DAMGO.
As for `CC1CCC(C(C)C)C(OCC(O)Cn2ccc3ccccc32)C1` (centres unmarked) [Compound A0078], the “% DAMGO (1 μM)” value was determined as 92.3%.
Still for that read-out and setting: as for `COc1ccc(OCC(O)Cn2ccc3ccccc32)cc1` (centres unmarked) [Compound A0077], the figure is 132.3%.

The same test, now with this note: 1 μM; average of two runs.
On to `Cc1ccc(S(=O)(=O)N2CCOC23CCN(CC2CCC2)CC3)cc1` [Compound 9], for which the “MOR agonist activity, FLNA-Binding Compound as Agonist 1 μM (preliminary study)” value turned out to be 197.2%.

Staying with this test, now noted: Series B; 0.1 μM compound, relative to DAMGO.
For `COc1ccc(CCC(=O)CC2c3c(cc4c(c3OC)OCO4)CCN2C)cc1` (centres unmarked) [Compound B0047], the “% DAMGO (0.1 μM)” value was determined as 106.3%.
Take `COc1c2c(cc3c1C(CC(=O)c1ccc(O)c(C)c1)[N+](C)(C)CC3)OCO2` (centres unmarked) [Compound B0002]: the “% DAMGO (0.1 μM)” value was 100.0%.
For the molecule `COc1ccc(CC(=O)CC2c3c(cc4c(c3OC)OCO4)CC[N+]2(C)C)c(OC)c1` (centres unmarked) [Compound B0029], the “% DAMGO (0.1 μM)” value amounted to 89.4%.
`COc1ccc(CCC(=O)CC2c3c(cc4c(c3OC)OCO4)CC[N+]2(C)C)cc1OC` (centres unmarked) [Compound B0042]: the “% DAMGO (0.1 μM)” value was 39.6%.

The same test, now with this note: Series B; 0.1 μM compound; [35S]GTPγS binding to Gαo, striatal membranes.
For `COc1ccc(CCC(=O)CC2c3c(cc4c(c3OC)OCO4)CCN2C)cc1` (centres unmarked) [Compound B0047], the “MOR agonist activity, percent [35S]GTPγS binding at the stated compound concentration” value (shortened to “MOR agonist activity, percent”) is 187.8%.
As to `COc1c2c(cc3c1C(CC(=O)c1ccc(O)c(C)c1)[N+](C)(C)CC3)OCO2` (centres unmarked) [Compound B0002], the “MOR agonist activity, percent” value worked out at 165.7%.
With `COc1ccc(CC(=O)CC2c3c(cc4c(c3OC)OCO4)CC[N+]2(C)C)c(OC)c1` (centres unmarked) [Compound B0029], the “MOR agonist activity, percent” value is given as 171.9%.
As for `COc1ccc(CCC(=O)CC2c3c(cc4c(c3OC)OCO4)CC[N+]2(C)C)cc1OC` (centres unmarked) [Compound B0042], the “MOR agonist activity, percent” value was determined as 69.9%.

The same test, now with this note: Series B; 1 μM compound + 1 μM β-FNA.
As to `COc1ccc(CCC(=O)CC2c3c(cc4c(c3OC)OCO4)CCN2C)cc1` (centres unmarked) [Compound B0047], the “MOR agonist activity, percent” value is 68.4%.
The same measure, in the same setting: as for `COc1c2c(cc3c1C(CC(=O)c1ccc(O)c(C)c1)[N+](C)(C)CC3)OCO2` (centres unmarked) [Compound B0002], the figure is 101.4%.
Same read-out and setting: as for `COc1ccc(CC(=O)CC2c3c(cc4c(c3OC)OCO4)CC[N+]2(C)C)c(OC)c1` (centres unmarked) [Compound B0029], the figure is 17.6%; as for `COc1ccc(CCC(=O)CC2c3c(cc4c(c3OC)OCO4)CC[N+]2(C)C)cc1OC` (centres unmarked) [Compound B0042], 43.1%.

Staying with this test, now noted: Series B; 1 μM compound + β-FNA, relative to DAMGO + BFNA.
Consider `COc1ccc(CCC(=O)CC2c3c(cc4c(c3OC)OCO4)CCN2C)cc1` (centres unmarked) [Compound B0047], for which the “% DAMGO + BFNA” value is 260.1%.
Same read-out and setting: as for `COc1c2c(cc3c1C(CC(=O)c1ccc(O)c(C)c1)[N+](C)(C)CC3)OCO2` (centres unmarked) [Compound B0002], the figure is 156.0%; as for `COc1ccc(CC(=O)CC2c3c(cc4c(c3OC)OCO4)CC[N+]2(C)C)c(OC)c1` (centres unmarked) [Compound B0029], 40.1%; as for `COc1ccc(CCC(=O)CC2c3c(cc4c(c3OC)OCO4)CC[N+]2(C)C)cc1OC` (centres unmarked) [Compound B0042], 163.9%.

The test is the same for the next values; noted with them: Series B; 1 μM compound, relative to DAMGO.
Turning to `COc1ccc(CCC(=O)CC2c3c(cc4c(c3OC)OCO4)CCN2C)cc1` (centres unmarked) [Compound B0047], the “% DAMGO (1 μM)” value is 92.6%.
The same measure, in the same setting: as for `COc1c2c(cc3c1C(CC(=O)c1ccc(O)c(C)c1)[N+](C)(C)CC3)OCO2` (centres unmarked) [Compound B0002], the figure is 81.1%.
Same read-out and setting: as for `COc1ccc(CC(=O)CC2c3c(cc4c(c3OC)OCO4)CC[N+]2(C)C)c(OC)c1` (centres unmarked) [Compound B0029], the figure is 77.0%.
In the case of `COc1ccc(CCC(=O)CC2c3c(cc4c(c3OC)OCO4)CC[N+]2(C)C)cc1OC` (centres unmarked) [Compound B0042], the “% DAMGO (1 μM)” value is recorded as 42.3%.

Still in this test, the particulars now being: Series B; 1 μM compound; [35S]GTPγS binding to Gαo, striatal membranes.
Turning to `COc1ccc(CCC(=O)CC2c3c(cc4c(c3OC)OCO4)CCN2C)cc1` (centres unmarked) [Compound B0047], the “MOR agonist activity, percent” value is listed as 235.6%.
Same read-out and setting: as for `COc1c2c(cc3c1C(CC(=O)c1ccc(O)c(C)c1)[N+](C)(C)CC3)OCO2` (centres unmarked) [Compound B0002], the figure is 219.0%.
As for `COc1ccc(CC(=O)CC2c3c(cc4c(c3OC)OCO4)CC[N+]2(C)C)c(OC)c1` (centres unmarked) [Compound B0029], the “MOR agonist activity, percent” value is given as 210.3%.
`COc1ccc(CCC(=O)CC2c3c(cc4c(c3OC)OCO4)CC[N+]2(C)C)cc1OC` (centres unmarked) [Compound B0042]: the “MOR agonist activity, percent” value is recorded as 107.5%.

Staying with this test, now noted: preliminary study.
On to `Cc1ccc(S(=O)(=O)N2CCOC23CCN(CC2CCC2)CC3)cc1` [Compound 9], for which the “MOR agonist activity (conclusion in words)” value is reported as “MOR agonists”.

The target of the next test is FLNA pentapeptide of SEQ ID NO: 1 (Bn-VAKGL) (Homo sapiens, UniProt P21333). Kind of test: FITC-NLX-based FLNA screening assay (inhibition of FITC-naloxone binding to Bn-VAKGL on streptavidin plates). Conditions: FLNA-binding compound 0.01 μM; 10 nM FITC-NLX; read-out: Percent Binding Inhibition.
Take `COc1ccc(CCC(=O)CC2c3c(cc4c(c3OC)OCO4)CCN2C)cc1` (centres unmarked) [Compound B0047]: the inhibition at 0.01 µM was found to be 30.7%.
Consider `COc1ccc(OCC(O)Cn2ccc3ccccc32)cc1` (centres unmarked) [Compound A0077], for which the inhibition at 0.01 µM was found to be 41.1%.

The test is the same for the next values; noted with them: FLNA-binding compound 0.1 μM; 10 nM FITC-NLX; read-out: Percent Binding Inhibition.
As to `COc1ccc(CCC(=O)CC2c3c(cc4c(c3OC)OCO4)CCN2C)cc1` (centres unmarked) [Compound B0047], the inhibition at 0.1 µM turned out to be 37.6%.
Still for that read-out and setting: as for `COc1ccc(OCC(O)Cn2ccc3ccccc32)cc1` (centres unmarked) [Compound A0077], the figure is 48.7%.

The test is the same for the next values; noted with them: FLNA-binding compound 1 μM; 10 nM FITC-NLX; read-out: Percent Binding Inhibition.
`COc1ccc(CCC(=O)CC2c3c(cc4c(c3OC)OCO4)CCN2C)cc1` (centres unmarked) [Compound B0047]: the inhibition at 1 µM came to 47.1%.
`COc1ccc(OCC(O)Cn2ccc3ccccc32)cc1` (centres unmarked) [Compound A0077]: the inhibition at 1 µM came out at 49.4%.

Still in this test, the particulars now being: preliminary study.
As for `Cc1ccc(S(=O)(=O)N2CCOC23CCN(CC2CCC2)CC3)cc1` [Compound 9], the “Binding to FLNA (conclusion in words)” value was “bind well to FLNA”.

The same test, now with this note: read-out: Percent Binding Inhibition, FLNA-binding compound 0.01 μM; 10 nM FITC-NLX.
Consider `CC1CCC(C(C)C)C(OCC(O)Cn2ccc3ccccc32)C1` (centres unmarked) [Compound A0078], for which the inhibition at 0.01 µM turned out to be 50.1%.
`COc1c2c(cc3c1C(CC(=O)c1ccc(O)c(C)c1)[N+](C)(C)CC3)OCO2` (centres unmarked) [Compound B0002]: the inhibition at 0.01 µM turned out to be 40.2%.
Same read-out and setting: as for `COc1ccc(CC(=O)CC2c3c(cc4c(c3OC)OCO4)CC[N+]2(C)C)c(OC)c1` (centres unmarked) [Compound B0029], the figure is 33.4%; as for `COc1ccc(CCC(=O)CC2c3c(cc4c(c3OC)OCO4)CC[N+]2(C)C)cc1OC` (centres unmarked) [Compound B0042], 40.8%.

Staying with this test, now noted: read-out: Percent Binding Inhibition, FLNA-binding compound 0.1 μM; 10 nM FITC-NLX.
Take `CC1CCC(C(C)C)C(OCC(O)Cn2ccc3ccccc32)C1` (centres unmarked) [Compound A0078]: the inhibition at 0.1 µM was 55.8%.
Turning to `COc1c2c(cc3c1C(CC(=O)c1ccc(O)c(C)c1)[N+](C)(C)CC3)OCO2` (centres unmarked) [Compound B0002], the inhibition at 0.1 µM turned out to be 46.4%.
Same read-out and setting: as for `COc1ccc(CC(=O)CC2c3c(cc4c(c3OC)OCO4)CC[N+]2(C)C)c(OC)c1` (centres unmarked) [Compound B0029], the figure is 42.9%; as for `COc1ccc(CCC(=O)CC2c3c(cc4c(c3OC)OCO4)CC[N+]2(C)C)cc1OC` (centres unmarked) [Compound B0042], 46.4%.

The same test, now with this note: read-out: Percent Binding Inhibition, FLNA-binding compound 1 μM; 10 nM FITC-NLX.
For the molecule `CC1CCC(C(C)C)C(OCC(O)Cn2ccc3ccccc32)C1` (centres unmarked) [Compound A0078], the inhibition at 1 µM was 57.6%.
Still for that read-out and setting: as for `COc1c2c(cc3c1C(CC(=O)c1ccc(O)c(C)c1)[N+](C)(C)CC3)OCO2` (centres unmarked) [Compound B0002], the figure is 55%; as for `COc1ccc(CC(=O)CC2c3c(cc4c(c3OC)OCO4)CC[N+]2(C)C)c(OC)c1` (centres unmarked) [Compound B0029], 50.2%; as for `COc1ccc(CCC(=O)CC2c3c(cc4c(c3OC)OCO4)CC[N+]2(C)C)cc1OC` (centres unmarked) [Compound B0042], 51.6%.
